Results: the NIST ThermoML archive (doi:10.1021/je049895b)

Assay: xn = mol fraction of the nth substance listed
Settings: 101.33 kPa, Liquid; for viscosity: Capillary tube (Ostwald / Ubbelohde) method

CCOC(=O)OCC [diethyl carbonate] + CC1CCCCC1
Settings | speed of sound, 293.15 K [m/s] | speed of sound, 298.15 K [m/s] | speed of sound, 303.15 K [m/s] | speed of sound, 308.15 K [m/s] | speed of sound, 313.15 K [m/s] | viscosity, 293.15 K [mPa·s] | viscosity, 298.15 K [mPa·s] | viscosity, 303.15 K [mPa·s] | viscosity, 308.15 K [mPa·s] | viscosity, 313.15 K [mPa·s]
x1 = 0.0473 | 1229 | 1207 | 1185 | 1164 | 1142 | 0.709 | 0.662 | 0.621 | 0.583 | 0.548
x1 = 0.0978 | 1222 | 1201 | 1179 | 1157 | 1136 | 0.692 | 0.647 | 0.607 | 0.57 | 0.537
x1 = 0.1985 | 1211 | 1189 | 1168 | 1146 | 1125 | 0.678 | 0.633 | 0.593 | 0.558 | 0.525
x1 = 0.2968 | 1203 | 1181 | 1160 | 1138 | 1117 | 0.67 | 0.627 | 0.588 | 0.553 | 0.521
x1 = 0.3924 | 1196 | 1175 | 1154 | 1132 | 1111 | 0.672 | 0.628 | 0.589 | 0.554 | 0.522
x1 = 0.4993 | 1192 | 1171 | 1149 | 1128 | 1107 | 0.68 | 0.635 | 0.596 | 0.561 | 0.529
x1 = 0.5999 | 1189 | 1168 | 1147 | 1126 | 1105 | 0.695 | 0.649 | 0.609 | 0.572 | 0.539
x1 = 0.6985 | 1189 | 1168 | 1147 | 1126 | 1106 | 0.709 | 0.663 | 0.622 | 0.584 | 0.55
x1 = 0.7988 | 1191 | 1170 | 1149 | 1128 | 1108 | 0.732 | 0.684 | 0.642 | 0.603 | 0.568
x1 = 0.8996 | 1194 | 1173 | 1152 | 1132 | 1112 | 0.762 | 0.711 | 0.666 | 0.625 | 0.588
x1 = 0.9509 | 1196 | 1175 | 1155 | 1134 | 1114 | 0.787 | 0.735 | 0.687 | 0.645 | 0.607
x1 = 1 | 1198 | 1177 | 1157 | 1136 | 1116 | 0.809 | 0.75 | 0.702 | 0.658 | 0.618

C1CCCC1 [cyclopentane] + COC(=O)OC
Settings | mass density [kg/m3] | speed of sound [m/s] | viscosity [mPa·s]
293.15 K, x2 = 0 | 744.43 | 1232 | 0.438
293.15 K, x2 = 0.0453 | 755.75 | 1219 | 0.429
293.15 K, x2 = 0.0871 | 766.47 | 1209 | 0.419
293.15 K, x2 = 0.1847 | 792.72 | 1192 | 0.417
293.15 K, x2 = 0.2915 | 823.38 | 1180 | 0.421
293.15 K, x2 = 0.3937 | 854.33 | 1174 | 0.432
293.15 K, x2 = 0.4904 | 884.96 | 1172 | 0.449
293.15 K, x2 = 0.5988 | 920.84 | 1174 | 0.472
293.15 K, x2 = 0.6963 | 954.64 | 1180 | 0.497
293.15 K, x2 = 0.8033 | 993.39 | 1190 | 0.531
293.15 K, x2 = 0.9028 | 1031.4 | 1204 | 0.573
293.15 K, x2 = 0.9532 | 1051.09 | 1212 | 0.601
298.15 K, x2 = 0 | 739.47 | 1206 | 0.415
298.15 K, x2 = 0.0453 | 750.69 | 1193 | 0.406
298.15 K, x2 = 0.0871 | 761.31 | 1184 | 0.397
298.15 K, x2 = 0.1847 | 787.29 | 1168 | 0.396
298.15 K, x2 = 0.2915 | 817.76 | 1156 | 0.398
298.15 K, x2 = 0.3937 | 848.47 | 1150 | 0.408
298.15 K, x2 = 0.4904 | 878.98 | 1148 | 0.422
298.15 K, x2 = 0.5988 | 914.7 | 1151 | 0.444
298.15 K, x2 = 0.6963 | 948.41 | 1157 | 0.468
298.15 K, x2 = 0.8033 | 987.01 | 1168 | 0.5
298.15 K, x2 = 0.9028 | 1024.85 | 1182 | 0.538
298.15 K, x2 = 0.9532 | 1044.57 | 1190 | 0.565
303.15 K, x2 = 0 | 734.47 | 1180 | 0.394
303.15 K, x2 = 0.0453 | 745.58 | 1168 | 0.385
303.15 K, x2 = 0.0871 | 756.09 | 1158 | 0.377
303.15 K, x2 = 0.1847 | 781.98 | 1143 | 0.374
303.15 K, x2 = 0.2915 | 812.07 | 1131 | 0.377
303.15 K, x2 = 0.3937 | 842.65 | 1125 | 0.386
303.15 K, x2 = 0.4904 | 872.96 | 1124 | 0.4
303.15 K, x2 = 0.5988 | 908.54 | 1127 | 0.419
303.15 K, x2 = 0.6963 | 942.13 | 1134 | 0.441
303.15 K, x2 = 0.8033 | 980.64 | 1145 | 0.472
303.15 K, x2 = 0.9028 | 1018.17 | 1160 | 0.507
303.15 K, x2 = 0.9532 | 1038.01 | 1168 | 0.528
308.15 K, x2 = 0 | 729.42 | 1154 | 0.374
308.15 K, x2 = 0.0453 | 740.41 | 1142 | 0.366
308.15 K, x2 = 0.0871 | 750.83 | 1133 | 0.358
308.15 K, x2 = 0.1847 | 776.38 | 1118 | 0.355
308.15 K, x2 = 0.2915 | 806.36 | 1107 | 0.357
308.15 K, x2 = 0.3937 | 836.73 | 1102 | 0.366
308.15 K, x2 = 0.4904 | 866.91 | 1101 | 0.379
308.15 K, x2 = 0.5988 | 902.34 | 1105 | 0.397
308.15 K, x2 = 0.6963 | 935.82 | 1111 | 0.418
308.15 K, x2 = 0.8033 | 974.2 | 1123 | 0.446
308.15 K, x2 = 0.9028 | 1011.88 | 1138 | 0.478
308.15 K, x2 = 0.9532 | 1031.41 | 1146 | 0.501
313.15 K, x2 = 0 | 724.32 | 1129 | 0.355
313.15 K, x2 = 0.0453 | 735.2 | 1117 | 0.348
313.15 K, x2 = 0.0871 | 745.51 | 1108 | 0.341
313.15 K, x2 = 0.1847 | 770.82 | 1093 | 0.338
313.15 K, x2 = 0.2915 | 800.54 | 1083 | 0.338
313.15 K, x2 = 0.3937 | 830.73 | 1078 | 0.346
313.15 K, x2 = 0.4904 | 860.7 | 1078 | 0.358
313.15 K, x2 = 0.5988 | 896.1 | 1082 | 0.377
313.15 K, x2 = 0.6963 | 929.45 | 1089 | 0.397
313.15 K, x2 = 0.8033 | 967.7 | 1101 | 0.424
313.15 K, x2 = 0.9028 | 1005.28 | 1116 | 0.454
313.15 K, x2 = 0.9532 | 1024.79 | 1125 | 0.472
